Data published in article PMC5540273, “Progress towards a public chemogenomic set for protein kinases and a call for contributions” (PLoS ONE, 2017).

What was measured:
Experiment in all cases: KINOMEscan competition binding
CAMK2B = CAMK2B (Homo sapiens, UniProt Q13554); conditions: read-out: %Inh CAMK2B
CDKL2 = target: T1, CDKL2 (Homo sapiens, UniProt Q92772); conditions: read-out: %Inh CDKL2
T1 sequence (Q92772 1-493): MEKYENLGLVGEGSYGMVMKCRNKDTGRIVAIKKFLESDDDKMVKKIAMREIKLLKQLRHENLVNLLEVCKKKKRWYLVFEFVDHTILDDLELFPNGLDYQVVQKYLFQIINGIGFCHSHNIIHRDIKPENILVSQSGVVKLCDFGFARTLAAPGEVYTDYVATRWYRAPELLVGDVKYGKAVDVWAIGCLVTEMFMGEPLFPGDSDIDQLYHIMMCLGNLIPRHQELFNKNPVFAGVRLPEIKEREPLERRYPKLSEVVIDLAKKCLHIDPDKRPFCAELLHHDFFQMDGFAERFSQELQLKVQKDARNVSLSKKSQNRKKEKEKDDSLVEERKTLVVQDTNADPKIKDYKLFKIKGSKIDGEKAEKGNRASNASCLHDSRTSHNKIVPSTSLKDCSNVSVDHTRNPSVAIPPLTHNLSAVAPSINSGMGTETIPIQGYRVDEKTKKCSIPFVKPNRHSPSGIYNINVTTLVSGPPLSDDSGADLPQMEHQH

CLK3 = CLK3 (Homo sapiens, UniProt P49761); conditions: read-out: %Inh CLK3
CSNK2A2 = CSNK2A2 (Homo sapiens, UniProt P19784); conditions: read-out: %Inh CSNK2A2
DAPK2 = DAPK2 (Homo sapiens, UniProt Q9UIK4); conditions: read-out: %Inh DAPK2
DDR2 = target: T2, DDR2 (Homo sapiens, UniProt Q16832); conditions: read-out: %Inh DDR2
T2 sequence (Q16832 22-855): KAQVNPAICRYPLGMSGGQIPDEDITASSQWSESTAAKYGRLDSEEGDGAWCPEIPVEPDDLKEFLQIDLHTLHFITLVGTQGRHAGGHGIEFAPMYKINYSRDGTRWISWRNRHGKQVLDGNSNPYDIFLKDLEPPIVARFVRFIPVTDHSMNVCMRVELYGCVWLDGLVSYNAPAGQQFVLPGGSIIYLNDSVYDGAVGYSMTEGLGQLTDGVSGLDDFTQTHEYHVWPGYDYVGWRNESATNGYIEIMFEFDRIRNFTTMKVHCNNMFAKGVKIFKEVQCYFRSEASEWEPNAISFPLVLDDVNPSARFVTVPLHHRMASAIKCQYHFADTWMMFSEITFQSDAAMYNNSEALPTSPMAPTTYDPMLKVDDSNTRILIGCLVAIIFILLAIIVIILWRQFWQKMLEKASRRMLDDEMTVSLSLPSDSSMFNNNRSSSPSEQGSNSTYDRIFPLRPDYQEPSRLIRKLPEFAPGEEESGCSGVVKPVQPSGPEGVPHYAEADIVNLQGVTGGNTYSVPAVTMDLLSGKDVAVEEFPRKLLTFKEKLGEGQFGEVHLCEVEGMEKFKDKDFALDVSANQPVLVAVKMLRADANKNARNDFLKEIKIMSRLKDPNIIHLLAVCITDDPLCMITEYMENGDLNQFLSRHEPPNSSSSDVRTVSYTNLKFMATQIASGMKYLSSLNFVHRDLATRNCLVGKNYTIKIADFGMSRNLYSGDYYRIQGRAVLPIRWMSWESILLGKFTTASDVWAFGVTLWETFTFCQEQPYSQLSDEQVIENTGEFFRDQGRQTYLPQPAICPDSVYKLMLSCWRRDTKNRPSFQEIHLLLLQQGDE

FYN = FYN (Homo sapiens, UniProt P06241); conditions: read-out: %Inh FYN
GRK1 = target: T3, GRK1 (Homo sapiens, UniProt Q15835); conditions: read-out: %Inh GRK1
T3 sequence (Q15835 1-563): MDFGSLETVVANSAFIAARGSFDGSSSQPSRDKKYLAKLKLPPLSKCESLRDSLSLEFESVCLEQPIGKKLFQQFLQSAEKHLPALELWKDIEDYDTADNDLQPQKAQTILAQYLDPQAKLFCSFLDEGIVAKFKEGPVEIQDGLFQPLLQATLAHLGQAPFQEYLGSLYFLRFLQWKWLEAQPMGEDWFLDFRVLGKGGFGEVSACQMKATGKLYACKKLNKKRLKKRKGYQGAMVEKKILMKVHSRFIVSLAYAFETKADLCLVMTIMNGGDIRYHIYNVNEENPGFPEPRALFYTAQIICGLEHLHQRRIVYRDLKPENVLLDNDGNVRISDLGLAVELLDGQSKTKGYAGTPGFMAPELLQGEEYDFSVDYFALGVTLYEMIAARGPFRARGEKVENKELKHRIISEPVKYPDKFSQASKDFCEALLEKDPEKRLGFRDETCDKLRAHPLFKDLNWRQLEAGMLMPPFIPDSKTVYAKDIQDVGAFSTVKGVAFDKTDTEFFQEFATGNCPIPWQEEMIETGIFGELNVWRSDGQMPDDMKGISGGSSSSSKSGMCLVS

[1] = target: JAK3(JH1domain-catalytic) (Homo sapiens, UniProt P52333); conditions: read-out: %Inh JAK3(JH1domain-catalytic)

Row | SMILES | inhibition at 1 µM (CAMK2B) [%] | inhibition at 1 µM (CDKL2) [%] | inhibition at 1 µM (CLK3) [%] | inhibition at 1 µM (CSNK2A2) [%] | inhibition at 1 µM (DAPK2) [%] | inhibition at 1 µM (DDR2) [%] | inhibition at 1 µM (FYN) [%] | inhibition at 1 µM (GRK1) [%] | inhibition at 1 µM [1] [%]
1 | Cn1cc(-c2cnc(N)c3c(-c4ccc5c(c4)CCN5C(=O)Cc4ccccc4)csc23)cn1 [UNC10225012A] | 12 | 0 | 0 | 1 | 21 | 24 | 25 | 0 | 0
2 | CS(=O)(=O)Cc1ccc(Nc2nccc(-c3c(-c4cccc(NC(=O)C5CCCCC5)c4)nn4ncccc34)n2)cc1 [UNC10225159A] | 8 | 5 | 24 | 1 | 9 | 54 | 1 | 0 | 43
3 | Cc1ccc(NC(=O)Nc2cccc(C(F)(F)F)c2)cc1 [UNC10225187A] | 25 | 0 | 0 | 0 | 3 | 65 | 0 | 2 | 0
4 | COc1cccc(OC)c1C(=O)Nc1cccc(-c2nn3ccccc3c2-c2ccnc(Nc3cccc(F)c3)n2)c1 [UNC10225310A] | 6 | 6 | 0 | 23 | 6 | 57 | 22 | 0 | 0
5 | O=c1cc(N2CCOCC2)nc2n(Cc3cccc(Cl)c3Cl)c(C3CC3)nn12 [UNC10225469A] | 10 | 0 | 14 | 0 | 12 | 0 | 6 | 0 | 0
